# Tested on: 292921-168-R-J2-PDC complex spheroid growth
# Assay: Anticancer human tumor 292921-168-R-J2-PDC patient-derived pancreatic carcinoma cell line growth inhibition [AhR]
# Conditions: for IC50: curve of first compound; for viability, T/C: stronger effect = lower value
# Summary of the method: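 Agents were dosed in half-log steps down from roughly clinical Cmax, or from 10 microM where Cmax was unknown, alone and with AhR antagonists. Read-out: percent test/control growth of tumor spheroids containing HUVEC and MSC stromal cells.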
# [1] = second compound 0.1 µM, first compound 0.0316 µM
# [2] = second compound 0.1 µM, first compound 0.1 µM
# [3] = second compound 0.1 µM, first compound 0.316 µM
# [4] = second compound 0.1 µM, first compound 1 µM
# [5] = second compound 0.1 µM, first compound 3.16 µM
# [6] = second compound 0.1 µM, first compound 10 µM
# [7] = second compound 0.316 µM, first compound 0.0316 µM
# [8] = second compound 0.316 µM, first compound 0.1 µM
# [9] = second compound 0.316 µM, first compound 0.316 µM
# [10] = second compound 0.316 µM, first compound 1 µM
# [11] = second compound 0.316 µM, first compound 3.16 µM
# [12] = second compound 0.316 µM, first compound 10 µM
# [13] = second compound 1 µM, first compound 0.0316 µM
# [14] = second compound 1 µM, first compound 0.1 µM
# [15] = second compound 1 µM, first compound 0.316 µM
# [16] = second compound 1 µM, first compound 1 µM
# [17] = second compound 1 µM, first compound 3.16 µM
# [18] = second compound 1 µM, first compound 10 µM
# [19] = second compound 3.16 µM, first compound 0.0316 µM
# [20] = second compound 3.16 µM, first compound 0.1 µM
# [21] = second compound 3.16 µM, first compound 0.316 µM
# [22] = second compound 3.16 µM, first compound 1 µM
# [23] = second compound 3.16 µM, first compound 3.16 µM
# [24] = second compound 3.16 µM, first compound 10 µM
# [25] = second compound 10 µM, first compound 0.0316 µM
# [26] = second compound 10 µM, first compound 0.1 µM
# [27] = second compound 10 µM, first compound 0.316 µM
# [28] = second compound 10 µM, first compound 1 µM
# [29] = second compound 10 µM, first compound 3.16 µM
# [30] = second compound 10 µM, first compound 10 µM
# [31] = second compound 0.1 µM, first compound 0.00949 µM
# [32] = second compound 0.1 µM, first compound 0.03 µM
# [33] = second compound 0.1 µM, first compound 0.0949 µM
# [34] = second compound 0.1 µM, first compound 0.3 µM
# [35] = second compound 0.316 µM, first compound 0.00949 µM
# [36] = second compound 0.316 µM, first compound 0.03 µM
# [37] = second compound 0.316 µM, first compound 0.0949 µM
# [38] = second compound 0.316 µM, first compound 0.3 µM
# [39] = second compound 1 µM, first compound 0.00949 µM
# [40] = second compound 1 µM, first compound 0.03 µM
# [41] = second compound 1 µM, first compound 0.0949 µM
# [42] = second compound 1 µM, first compound 0.3 µM
# [43] = second compound 3.16 µM, first compound 0.00949 µM
# [44] = second compound 3.16 µM, first compound 0.03 µM
# [45] = second compound 3.16 µM, first compound 0.0949 µM
# [46] = second compound 3.16 µM, first compound 0.3 µM
# [47] = second compound 10 µM, first compound 0.00949 µM
# [48] = second compound 10 µM, first compound 0.03 µM
# [49] = second compound 10 µM, first compound 0.0949 µM
# [50] = second compound 10 µM, first compound 0.3 µM
# 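Note: spheroids exposed to compounds for seven days after three days of growth.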
smiles,measurement,setting,value
CC1(C)CCC(CN2CCN(c3ccc(C(=O)NS(=O)(=O)c4ccc(NCC5CCOCC5)c([N+](=O)[O-])c4)c(Oc4cnc5[nH]ccc5c4)c3)CC2)=C(c2ccc(Cl)cc2)C1 + Cc1ccccc1N=Nc1ccc(NC(=O)c2ccnn2C)c(C)c1,IC50,second compound 0.1 µM,6.35 µM
same,IC50,second compound 0.316 µM,6.29 µM
same,IC50,second compound 1 µM,6.07 µM
same,IC50,second compound 3.16 µM,5.51 µM
same,IC50,second compound 10 µM,4.73 µM
same,"viability, T/C",[1],91.2%
same,"viability, T/C",[2],90.5%
same,"viability, T/C",[3],109%
same,"viability, T/C",[4],103%
same,"viability, T/C",[5],112%
same,"viability, T/C",[6],16.8%
same,"viability, T/C",[7],88.3%
same,"viability, T/C",[8],89.3%
same,"viability, T/C",[9],97.4%
same,"viability, T/C",[10],96%
same,"viability, T/C",[11],108%
same,"viability, T/C",[12],19%
same,"viability, T/C",[13],96.8%
same,"viability, T/C",[14],101%
same,"viability, T/C",[15],77.8%
same,"viability, T/C",[16],95.1%
same,"viability, T/C",[17],100%
same,"viability, T/C",[18],16.2%
same,"viability, T/C",[19],79.8%
same,"viability, T/C",[20],77.3%
same,"viability, T/C",[21],75.3%
same,"viability, T/C",[22],84%
same,"viability, T/C",[23],96.4%
same,"viability, T/C",[24],15.1%
same,"viability, T/C",[25],65.4%
same,"viability, T/C",[26],63.5%
same,"viability, T/C",[27],53.9%
same,"viability, T/C",[28],72.5%
same,"viability, T/C",[29],77.6%
same,"viability, T/C",[30],19.3%
CC1COCCN1c1cc(C2(S(C)(=N)=O)CC2)nc(-c2ccnc3[nH]ccc23)n1 (stereo not given) + Cc1ccccc1N=Nc1ccc(NC(=O)c2ccnn2C)c(C)c1,IC50,second compound 0.1 µM,2.76 µM
same,IC50,second compound 0.316 µM,2.52 µM
same,IC50,second compound 1 µM,2.08 µM
same,IC50,second compound 3.16 µM,1.81 µM
same,IC50,second compound 10 µM,1.48 µM
same,"viability, T/C",[1],89.7%
same,"viability, T/C",[2],96%
same,"viability, T/C",[3],93.9%
same,"viability, T/C",[4],83.1%
same,"viability, T/C",[5],45.6%
same,"viability, T/C",[6],21%
same,"viability, T/C",[7],98.8%
same,"viability, T/C",[8],84.3%
same,"viability, T/C",[9],88.3%
same,"viability, T/C",[10],79.5%
same,"viability, T/C",[11],42.6%
same,"viability, T/C",[12],24.4%
same,"viability, T/C",[13],86.4%
same,"viability, T/C",[14],83.7%
same,"viability, T/C",[15],85.4%
same,"viability, T/C",[16],69.8%
same,"viability, T/C",[17],38.6%
same,"viability, T/C",[18],19.2%
same,"viability, T/C",[19],80%
same,"viability, T/C",[20],78.8%
same,"viability, T/C",[21],68%
same,"viability, T/C",[22],65.6%
same,"viability, T/C",[23],37.4%
same,"viability, T/C",[24],16.7%
same,"viability, T/C",[25],66.9%
same,"viability, T/C",[26],55.7%
same,"viability, T/C",[27],58.2%
same,"viability, T/C",[28],58.3%
same,"viability, T/C",[29],34.3%
same,"viability, T/C",[30],21.5%
CCN(c1cc(-c2ccc(CN3CCOCC3)cc2)cc(C(=O)NCc2c(C)cc(C)[nH]c2=O)c1C)C1CCOCC1 + Cc1ccccc1N=Nc1ccc(NC(=O)c2ccnn2C)c(C)c1,IC50,second compound 0.1 µM,> 3 µM
same,IC50,second compound 0.316 µM,> 3 µM
same,IC50,second compound 1 µM,> 3 µM
same,IC50,second compound 3.16 µM,> 3 µM
same,IC50,second compound 10 µM,1.43 µM
same,"viability, T/C",[31],98.1%
same,"viability, T/C",[32],90.7%
same,"viability, T/C",[33],96.7%
same,"viability, T/C",[34],89.5%
same,"viability, T/C","second compound 0.1 µM, first compound 0.949 µM",86%
same,"viability, T/C","second compound 0.1 µM, first compound 3 µM",80.5%
same,"viability, T/C",[35],93.4%
same,"viability, T/C",[36],85.2%
same,"viability, T/C",[37],81.7%
same,"viability, T/C",[38],80.7%
same,"viability, T/C","second compound 0.316 µM, first compound 0.949 µM",71.9%
same,"viability, T/C","second compound 0.316 µM, first compound 3 µM",76.8%
same,"viability, T/C",[39],82.1%
same,"viability, T/C",[40],87.8%
same,"viability, T/C",[41],88.8%
same,"viability, T/C",[42],79.1%
same,"viability, T/C","second compound 1 µM, first compound 0.949 µM",85.7%
same,"viability, T/C","second compound 1 µM, first compound 3 µM",69.5%
same,"viability, T/C",[43],72.2%
same,"viability, T/C",[44],74.9%
same,"viability, T/C",[45],72.5%
same,"viability, T/C",[46],68.2%
same,"viability, T/C","second compound 3.16 µM, first compound 0.949 µM",67.3%
same,"viability, T/C","second compound 3.16 µM, first compound 3 µM",58.8%
same,"viability, T/C",[47],57%
same,"viability, T/C",[48],58.2%
same,"viability, T/C",[49],51%
same,"viability, T/C",[50],57.4%
same,"viability, T/C","second compound 10 µM, first compound 0.949 µM",53%
same,"viability, T/C","second compound 10 µM, first compound 3 µM",44.8%
Nc1ncn(C2CC(O)C(CO)S2)c(=O)n1 (stereo not given) + Cc1ccccc1N=Nc1ccc(NC(=O)c2ccnn2C)c(C)c1,IC50,second compound 0.1 µM,> 0.3 µM
same,IC50,second compound 0.316 µM,> 0.3 µM
same,IC50,second compound 1 µM,> 0.3 µM
same,IC50,second compound 3.16 µM,> 0.3 µM
same,IC50,second compound 10 µM,> 0.3 µM
same,"viability, T/C","second compound 0.1 µM, first compound 0.000949 µM",96.1%
same,"viability, T/C","second compound 0.1 µM, first compound 0.003 µM",91.2%
same,"viability, T/C",[31],86.3%
same,"viability, T/C",[32],93%
same,"viability, T/C",[33],91.1%
same,"viability, T/C",[34],77.5%
same,"viability, T/C","second compound 0.316 µM, first compound 0.000949 µM",87.6%
same,"viability, T/C","second compound 0.316 µM, first compound 0.003 µM",92.3%
same,"viability, T/C",[35],93.3%
same,"viability, T/C",[36],81.5%
same,"viability, T/C",[37],82.6%
same,"viability, T/C",[38],76.6%
same,"viability, T/C","second compound 1 µM, first compound 0.000949 µM",83.6%
same,"viability, T/C","second compound 1 µM, first compound 0.003 µM",85%
same,"viability, T/C",[39],80.7%
same,"viability, T/C",[40],83.8%
same,"viability, T/C",[41],90%
same,"viability, T/C",[42],78.5%
same,"viability, T/C","second compound 3.16 µM, first compound 0.000949 µM",68.6%
same,"viability, T/C","second compound 3.16 µM, first compound 0.003 µM",66.1%
same,"viability, T/C",[43],72.4%
same,"viability, T/C",[44],79.9%
same,"viability, T/C",[45],82.2%
same,"viability, T/C",[46],64.1%
same,"viability, T/C","second compound 10 µM, first compound 0.000949 µM",64%
same,"viability, T/C","second compound 10 µM, first compound 0.003 µM",56.1%
same,"viability, T/C",[47],59%
same,"viability, T/C",[48],62.7%
same,"viability, T/C",[49],61.6%
same,"viability, T/C",[50],57.1%
